Experimental data from patent publication US8952024B2, “Herbicidal pyrimidone derivatives” (E I du Pont de Nemours and Company, priority 2009, dated 2015).

How the values were obtained:
Format in all cases: in vivo
[1] = test system: bermudagrass (Cynodon dactylon); assay: Test B pre-/postemergence plant response
In short: (§1)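 Visual injury, 0–100 scale (100 = complete control), rated against controls after 13 to 15 days in greenhouse. Pre-emergence: seeds in loam/sand soil, treated at planting. Post-emergence: 1- to 4-leaf plants (2 to 18 cm) in peat/vermiculite medium. Compounds formulated in non-phytotoxic solvent with surfactant.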

[2] = test system: cocklebur (Xanthium strumarium); assay: Test B pre-/postemergence plant response
In short: as §1

[3] = test system: goosegrass (Eleusine indica); assay: Test B pre-/postemergence plant response
In short: as §1

[4] = test system: green foxtail (Setaria viridis); assay: Test B pre-/postemergence plant response
In short: as §1

[5] = test system: lambsquarters (Chenopodium album); assay: Test B pre-/postemergence plant response
In short: as §1

[6] = test system: large crabgrass (Digitaria sanguinalis); assay: Test B pre-/postemergence plant response
In short: as §1

[7] = test system: morningglory (Ipomoea coccinea); assay: Test B pre-/postemergence plant response
In short: as §1

[8] = test system: wheat (Triticum aestivum); assay: Test B pre-/postemergence plant response
In short: as §1

wild oat (Avena fatua) = assay: Test B pre-/postemergence plant response
In short: as §1

[9] = test system: yellow nutsedge (Cyperus esculentus); assay: Test B pre-/postemergence plant response
In short: as §1

[10] = test system: barnyardgrass (Echinochloa crus-galli); assay: Test B flooded paddy test; settings: for Plant response rating, Flood, Barnyardgrass: 250 g ai/ha, flooded paddy test, visual rating on 0 to 100 scale (0 no effect, 100 complete control) after 13 to 15 days; for Plant response rating, Barnyardgrass: Flood (flooded paddy test), 13 to 15 days
In short: (§2)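 Ratings are visual, 0–100 (100 = complete control), taken versus untreated controls 13 to 15 days after treatment in the greenhouse. Compound went straight into paddy water held 3 cm above soil, applied to 2-leaf-stage plants of four species.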

[11] = test system: umbrella sedge (Cyperus difformis); assay: Test B flooded paddy test; settings: for Plant response rating, Flood, Sedge, Umbrella: 250 g ai/ha, flooded paddy test, visual rating on 0 to 100 scale (0 no effect, 100 complete control) after 13 to 15 days; for Plant response rating, Sedge, Umbrella: Flood (flooded paddy test), 13 to 15 days
In short: as §2

[12] = Postemergence, 31 g ai/ha, 0 to 100 scale (0 no effect, 100 complete control)
[13] = Postemergence, 62 g ai/ha, scale 0 to 100 (0 no effect, 100 complete control)
[14] = Postemergence, 125 g ai/ha, scale 0 to 100 (0 no effect, 100 complete control)
[15] = Postemergence, 250 g ai/ha, scale 0 to 100 (0 no effect, 100 complete control), 13 to 15 days
[16] = 62 g ai/ha, scale of 0 to 100 where 0 is no effect and 100 is complete control
[17] = 125 g ai/ha, scale 0 to 100, 0 is no effect, 100 is complete control
[18] = Flood, 31 g ai/ha, scale 0 to 100 (0 no effect, 100 complete control)
[19] = 31 g ai/ha, postemergence, scale 0 to 100, 0 is no effect, 100 is complete control
[20] = 62 g ai/ha, postemergence, 0 is no effect, 100 is complete control, 13 to 15 days
[21] = 250 g ai/ha, Preemergence, 0 to 100 scale
[22] = Postemergence, 125 g ai/ha, visual rating after 13 to 15 days, scale 0 (no effect) to 100 (complete control)
[23] = Postemergence, 250 g ai/ha, scale 0 to 100 (0 no effect, 100 complete control)
[24] = Preemergence, 31 g ai/ha, scale 0 to 100 (0 no effect, 100 complete control)
[25] = Preemergence, 62 g ai/ha, scale 0 to 100 (0 no effect, 100 complete control)
[26] = Preemergence, 125 g ai/ha, scale 0 to 100, 0 no effect, 100 complete control

O=C1CCCC(O)=C1C(=O)c1cnc(-c2ccc(F)cc2)n(C2CCCCC2)c1=O [Compound 197]
80: Plant response rating, Cocklebur [2, 12]
65: Plant response rating, Nutsedge, Yellow [9, 14] | Sedge, Umbrella plant response rating [11, 18]
20: Plant response rating, Barnyardgrass [10, 17]
55: Plant response rating, Nutsedge, Yellow [9, 13]
40: Plant response rating, Wheat [8, 15] | Plant response rating, Oat, Wild (wild oat (Avena fatua); [12]) | Plant response rating, Oat, Wild (wild oat (Avena fatua); [13])
70: Plant response rating, Foxtail, Green [4, 15] | Plant response rating, Sedge, Umbrella [11, 16]
45: Plant response rating, Nutsedge, Yellow [9, 12]
98: Plant response rating, Goosegrass [3, 13] | Plant response rating, Crabgrass, Large [6, 14] | Plant response rating, Morningglory [7, 12]
0: Plant response rating, Wheat [8, 12] | Plant response rating, Wheat [8, 13] | Plant response rating, Barnyardgrass [10, 16] | Barnyardgrass plant response rating [10, 18]
5: Plant response rating, Foxtail, Green [4, 12]
30: Plant response rating, Foxtail, Green [4, 13] | Plant response rating, Flood, Barnyardgrass [10]
95: Plant response rating, Bermudagrass [1, 12] | Plant response rating, Lambsquarters [5, 12]
50: Plant response rating, Foxtail, Green [4, 14]
75: Plant response rating, Crabgrass, Large [6, 12] | Plant response rating, Nutsedge, Yellow [9, 15] | Plant response rating, Sedge, Umbrella [11, 17]
100: Plant response rating, Bermudagrass [1, 13] | Plant response rating, Bermudagrass [1, 14] | Plant response rating, Bermudagrass [1, 15] | Plant response rating, Cocklebur [2, 13] | Plant response rating, Cocklebur [2, 14] | Plant response rating, Cocklebur [2, 15] | Plant response rating, Goosegrass [3, 14] | Plant response rating, Goosegrass [3, 15] | Plant response rating, Lambsquarters [5, 13] | Plant response rating, Lambsquarters [5, 14] | Plant response rating, Lambsquarters [5, 15] | Plant response rating, Crabgrass, Large [6, 15] | Plant response rating, Morningglory [7, 13] | Plant response rating, Morningglory [7, 14] | Plant response rating, Morningglory [7, 15]
85: Plant response rating, Goosegrass [3, 12] | Plant response rating, Crabgrass, Large [6, 13] | Plant response rating, Oat, Wild (wild oat (Avena fatua); [15]) | Plant response rating, Flood, Sedge, Umbrella [11]

CCCc1ncc(C(=O)C2=C(O)CCCC2=O)c(=O)n1-c1ccccc1C [Compound 73]
80: Bermudagrass plant response rating (0 to 100 scale) [1, 20] | Plant response rating, Cocklebur [2, 23] | Plant response rating, Goosegrass [3, 23] | Plant response rating, Foxtail, Green [4, 21] | Plant response rating, Crabgrass, Large [6, 19] | Oat, Wild plant response rating (0 to 100 scale) (wild oat (Avena fatua); [20]) | Plant response rating, Oat, Wild (wild oat (Avena fatua); [22])
5: Plant response rating, Wheat [8, 26]
65: Plant response rating, Bermudagrass [1, 19] | Plant response rating, Cocklebur [2, 21] | Plant response rating, Cocklebur [2, 22] | Plant response rating, Goosegrass [3, 19] | Plant response rating, Nutsedge, Yellow [9, 25] | Plant response rating, Nutsedge, Yellow [9, 26]
85: Plant response rating, Goosegrass [3, 24] | Plant response rating, Lambsquarters [5, 19] | Crabgrass, Large plant response rating (0 to 100 scale) [6, 20] | Plant response rating, Crabgrass, Large [6, 24]
20: Plant response rating, Nutsedge, Yellow [9, 19] | Nutsedge, Yellow plant response rating (0 to 100 scale) [9, 20] | Plant response rating, Nutsedge, Yellow [9, 24]
35: Wheat plant response rating (0 to 100 scale) [8, 20]
50: Plant response rating, Bermudagrass [1, 24] | Morningglory plant response rating (0 to 100 scale) [7, 20] | Plant response rating, Wheat [8, 23] | Plant response rating, Nutsedge, Yellow [9, 22]
100: Plant response rating, Bermudagrass [1, 21] | Plant response rating, Goosegrass [3, 21] | Plant response rating, Goosegrass [3, 26] | Plant response rating, Lambsquarters [5, 21] | Plant response rating, Lambsquarters [5, 22] | Plant response rating, Lambsquarters [5, 23] | Plant response rating, Lambsquarters [5, 26] | Plant response rating, Crabgrass, Large [6, 21] | Plant response rating, Crabgrass, Large [6, 26]
60: Plant response rating, Cocklebur [2, 26]
40: Plant response rating, Wheat [8, 22]
90: Plant response rating, Bermudagrass [1, 22] | Plant response rating, Bermudagrass [1, 23] | Foxtail, Green plant response rating (0 to 100 scale) [4, 20] | Plant response rating, Foxtail, Green [4, 22] | Plant response rating, Crabgrass, Large [6, 22]
55: Plant response rating, Oat, Wild (wild oat (Avena fatua); [19])
0: Plant response rating, Cocklebur [2, 19] | Plant response rating, Cocklebur [2, 24] | Plant response rating, Cocklebur [2, 25] | Plant response rating, Foxtail, Green [4, 24] | Plant response rating, Morningglory [7, 19] | Plant response rating, Morningglory [7, 24] | Plant response rating, Morningglory [7, 25] | Plant response rating, Wheat [8, 19] | Plant response rating, Wheat [8, 24] | Plant response rating, Wheat [8, 25] | Plant response rating, Oat, Wild (wild oat (Avena fatua); [24]) | Plant response rating, Oat, Wild (wild oat (Avena fatua); [25]) | Plant response rating, Oat, Wild (wild oat (Avena fatua); [26]) | Plant response rating, Flood, Barnyardgrass [10] | Plant response rating, Barnyardgrass [10, 16] | Plant response rating, Flood, Sedge, Umbrella [11] | Plant response rating, Sedge, Umbrella [11, 16]
70: Plant response rating, Foxtail, Green [4, 19] | Plant response rating, Nutsedge, Yellow [9, 23]
45: Cocklebur plant response rating (0 to 100 scale) [2, 20] | Plant response rating, Morningglory [7, 26]
30: Plant response rating, Foxtail, Green [4, 25] | Plant response rating, Foxtail, Green [4, 26]
98: Plant response rating, Bermudagrass [1, 25] | Plant response rating, Bermudagrass [1, 26] | Plant response rating, Goosegrass [3, 25] | Lambsquarters plant response rating (0 to 100 scale) [5, 20] | Plant response rating, Lambsquarters [5, 25] | Plant response rating, Crabgrass, Large [6, 25]
95: Plant response rating, Foxtail, Green [4, 23] | Plant response rating, Lambsquarters [5, 24] | Plant response rating, Crabgrass, Large [6, 23] | Plant response rating, Morningglory [7, 23] | Plant response rating, Oat, Wild (wild oat (Avena fatua); [23])
75: Goosegrass plant response rating (0 to 100 scale) [3, 20] | Plant response rating, Goosegrass [3, 22] | Plant response rating, Morningglory [7, 22]
